{"source": "patent US9388153B2", "about": "“Secondary amines as therapeutic agents” (Allergan, Inc., priority 2013, dated 2016)", "key": {"[1]": {"molecular_target": "EP4 (Homo sapiens, UniProt P35408)", "sequence (P35408 whole entry)": "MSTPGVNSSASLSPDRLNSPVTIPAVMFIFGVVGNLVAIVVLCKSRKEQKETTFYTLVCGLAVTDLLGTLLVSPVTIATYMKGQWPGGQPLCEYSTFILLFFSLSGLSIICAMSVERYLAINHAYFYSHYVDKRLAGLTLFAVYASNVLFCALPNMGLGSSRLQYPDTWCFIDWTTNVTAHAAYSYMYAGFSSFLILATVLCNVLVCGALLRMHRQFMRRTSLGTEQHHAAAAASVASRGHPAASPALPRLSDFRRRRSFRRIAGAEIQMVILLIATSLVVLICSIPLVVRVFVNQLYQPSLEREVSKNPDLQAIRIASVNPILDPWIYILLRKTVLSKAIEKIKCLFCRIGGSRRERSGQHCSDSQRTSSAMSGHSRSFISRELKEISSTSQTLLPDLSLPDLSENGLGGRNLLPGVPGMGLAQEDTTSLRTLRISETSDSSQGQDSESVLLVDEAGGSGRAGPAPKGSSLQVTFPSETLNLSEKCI", "experiment": "EP4 binding (KI)", "conditions": "NA = Not Active; read-out: EP4 data (EC50 in nM) KI", "text": "(§1) U.S. patent application publication No. 20070129552, published on Jun. 7, 2007, incorporated by reference herein, describes the methods used to obtain the in vitro data in Table 1 below."}, "[2]": {"molecular_target": "T1, EP2 (Homo sapiens, UniProt P43116)", "T1 sequence (P43116 whole entry)": "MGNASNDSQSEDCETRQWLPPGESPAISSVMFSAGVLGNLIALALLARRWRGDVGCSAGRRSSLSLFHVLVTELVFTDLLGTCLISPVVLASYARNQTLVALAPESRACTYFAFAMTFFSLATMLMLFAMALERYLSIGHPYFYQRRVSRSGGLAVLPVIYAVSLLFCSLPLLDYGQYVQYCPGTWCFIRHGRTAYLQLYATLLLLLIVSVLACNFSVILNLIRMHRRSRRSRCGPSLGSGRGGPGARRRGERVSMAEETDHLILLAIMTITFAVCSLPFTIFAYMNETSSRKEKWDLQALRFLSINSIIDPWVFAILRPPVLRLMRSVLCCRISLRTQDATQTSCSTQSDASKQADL", "experiment": "EP2 cAMP functional assay", "format": "cell-based", "conditions": "NA = Not Active", "text": "as §1"}, "[3]": {"molecular_target": "T1, EP2", "experiment": "EP2 binding (Ki)", "conditions": "NA = Not Active; read-out: EP2 Data (EC50 in nM) Ki", "text": "as §1"}}}
{"smiles": "O=C(O)COc1cccc(NC2CCc3ccc(-c4cccc(F)c4)cc32)c1", "note": "(stereo not drawn) [Example 1, 2-(3-((6-(3-Fluorophenyl)-2,3-dihydro-1H-inden-1-yl)amino)phenoxy)acetic acid]", "values": [{"measurement": "Ki", "setting": "[1]", "result": 3050, "unit": "nM"}, {"measurement": "EC50", "setting": "[2]", "result": 11, "unit": "nM"}, {"measurement": "Ki", "setting": "[3]", "result": 80, "unit": "nM"}]}
{"smiles": "CN(c1cccc(OCC(=O)O)c1)C1CCc2ccc(-c3cccc(F)c3)cc21", "note": "(stereo not drawn) [Example 3, 2-(3-((6-(3-Fluorophenyl)-2,3-dihydro-1H-inden-1-yl)(methyl)amino)phenoxy)acetic acid]", "values": [{"measurement": "Ki", "setting": "[1]", "result": 7320, "unit": "nM"}, {"measurement": "EC50", "setting": "[2]", "result": 697, "unit": "nM"}, {"measurement": "Ki", "setting": "[3]", "result": 1810, "unit": "nM"}]}
{"smiles": "CCN(c1cccc(OCC(=O)O)c1)C1CCc2ccc(-c3cccc(F)c3)cc21", "note": "(stereo not drawn) [Example 4, 2-(3-(Ethyl(6-(3-fluorophenyl)-2,3-dihydro-1H-inden-1-yl)amino)phenoxy)acetic acid]", "values": [{"measurement": "Ki", "setting": "[1]", "result": 6640, "unit": "nM"}, {"measurement": "EC50", "setting": "[2]", "result": 8300, "unit": "nM"}, {"measurement": "Ki", "setting": "[3]", "result": 3940, "unit": "nM"}]}
{"smiles": "O=C(O)COc1cccc(OC2CCc3ccc(-c4cccc(F)c4)cc32)c1", "note": "(stereo not drawn) [Example 5, 2-(3-((6-(3-Fluorophenyl)-2,3-dihydro-1H-inden-1-yl)oxy)phenoxy)acetic acid]", "values": [{"measurement": "EC50", "setting": "[2]", "result": 747, "unit": "nM"}, {"measurement": "Ki", "setting": "[3]", "result": 144, "unit": "nM"}]}
{"smiles": "O=C(O)COc1cccc(NC2CCCc3ccc(-c4cccc(F)c4)cc32)c1", "note": "(stereo not drawn) [Example 6, 2-(3-((7-(3-Fluorophenyl)-1,2,3,4-tetrahydronaphthalen-1-yl)amino)phenoxy)acetic acid]", "values": [{"measurement": "Ki", "setting": "[1]", "result": 3630, "unit": "nM"}, {"measurement": "EC50", "setting": "[2]", "result": 438, "unit": "nM"}, {"measurement": "Ki", "setting": "[3]", "result": 104, "unit": "nM"}]}
{"smiles": "OCCOc1cccc(NC2CCCc3ccc(-c4cccc(F)c4)cc32)c1", "note": "(stereo not drawn) [Example 7, 2-(3-((7-(3-Fluorophenyl)-1,2,3,4-tetrahydronaphthalen-1-yl)amino)phenoxy)ethanol]", "values": [{"measurement": "Ki", "setting": "[1]", "result": 6280, "unit": "nM"}]}
{"smiles": "O=C(O)COc1cccc(NC2COc3ccc(-c4cccc(F)c4)cc32)c1", "note": "(stereo not drawn) [Example 8, 2-(3-((5-(3-Fluorophenyl)-2,3-dihydrobenzofuran-3-yl)amino)phenoxy)acetic acid]", "values": [{"measurement": "Ki", "setting": "[1]", "result": 7990, "unit": "nM"}, {"measurement": "EC50", "setting": "[2]", "result": 0.6, "unit": "nM"}, {"measurement": "Ki", "setting": "[3]", "result": 13, "unit": "nM"}]}
